Reference: article PMC11855827, “High-Throughput Screening of Five Compound Libraries for Anthelmintic Activity and Toxicity Leads to the Discovery of Two Flavonoid Compounds” (International Journal of Molecular Sciences, 2025)
“And” between values parts separate entries of the source, which are not always exact repeats. Identical values can stand only once. Counter-ions that a name gives are not always drawn. Where a SMILES comes first, the peptide text is derived from it. The star is where a group is joined. βNA = c1ccc2cc(N*)ccc2c1

System: C. elegans
Details: Table S2, C. elegans SS assay, 110 μM, averages of 4 data points

Molecule | Percentage of motility inhibition 0 h | Percentage of motility inhibition 24 h
COc1cc2c(cc1OC)-c1c(C)c3ccc(OC)c(OC)c3c[n+]1CC2.[OH-] [Dehydrocorydaline (hydroxyl)] | 2% | 0%
O=Cc1ccc(O[C@@H]2O[C@H](CO)[C@@H](O)[C@@H](O)[C@H]2O)cc1 [Helicid] | 11% | 4%
C=C(C)[C@@H]1CC=C(CO)CC1 [(S)-(−)-Perillyl alcohol] | 36% | 35%
C=CCCCCCCCCC(=O)[O-].C=CCCCCCCCCC(=O)[O-].[Zn+2] [10‐Undecenoic acid (zinc salt)] | 43% | 35%
CNc1ccccc1C(=O)OC [Methyl N‐methylanthranilate] | 30% | 4%
CC(C)=C[C@@H]1CO[C@]23C[C@@]4(CO2)[C@@H](CC[C@@H]2[C@@]5(C)CC[C@H](O[C@H]6OC[C@H](O)[C@H](O[C@H]7O[C@H](COS(=O)(=O)O)[C@@H](O)[C@H](O)[C@H]7O)[C@H]6O[C@@H]6O[C@@H](CO)[C@H](O)[C@H]6O)C(C)(C)[C@@H]5CC[C@]24C)[C@H]3[C@@]1(C)O [Bacopaside I] | 19% | 0%
CC[C@@H](C(=O)[C@@H](C)[C@@H](O)[C@H](C)[C@@H]1O[C@@H]([C@@H](CC)C(=O)O)CC[C@@H]1C)[C@H]1O[C@]2(C=C[C@@H](O)[C@]3(CC[C@@](C)([C@H]4CC[C@](O)(CC)[C@H](C)O4)O3)O2)[C@H](C)C[C@@H]1C [Salinomycin (sodium salt)] | 28% | 18%
C[C@@H]1O[C@@H](O[C@H]2[C@H](O[C@H]3CC[C@@]4(C)[C@@H](CC[C@]5(C)[C@@H]4CC=C4[C@@H]6CC(C)(C)CC[C@]6(C(=O)O[C@@H]6O[C@H](CO[C@@H]7O[C@H](CO)[C@@H](O)[C@H](O)[C@H]7O)[C@@H](O)[C@H](O)[C@H]6O)CC[C@]45C)[C@]3(C)CO)OC[C@H](O)[C@@H]2O)[C@H](O)[C@H](O[C@@H]2O[C@H](CO)[C@@H](O[C@@H]3O[C@H](CO)[C@@H](O)[C@H](O)[C@H]3O)[C@H](O)[C@H]2O)[C@H]1O [Macranthoidin B] | 6% | 0%
COc1ccc2cc3[n+](cc2c1OC)CCc1cc(O)c(O)cc1-3.[Cl-] [Demethyleneberberine (chloride)] | 0% | 13%
COc1cc2oc3cc(O)c(OC)c(CC=C(C)C)c3c(=O)c2c(O)c1CC=C(C)C [beta‐Mangostin] | 30% | 0%
O=Cc1c[nH]c2ccccc12 [Indole‐3‐carboxaldehyde] | 0% | 17%
COc1cccc2c1cc([N+](=O)[O-])c1c(C(=O)O)cc3c(c12)OCO3 [Aristolochic acid A] |  | 22% and 11%
C[C@@H]1O[C@@H](O[C@H]2[C@H](O)[C@@H](O)[C@H](O[C@H]3CC[C@]4(C)[C@H]5CC=C6[C@@H]7CC(C)(C)CC[C@]7(CO)[C@@H](O)C[C@@]6(C)[C@]5(C)CC[C@H]4C3(C)C)O[C@@H]2CO[C@@H]2O[C@H](CO)[C@@H](O)[C@H](O)[C@H]2O)[C@H](O)[C@H](O)[C@H]1O [Saikosaponin F] | 1% | 0%
Cl.Clc1ccc(Cn2c(CN3CCCC3)nc3ccccc32)cc1 [Clemizole (hydrochloride)] | 25% | 69%
Cl.Cl.NC(N)=NCCC[C@H](NC(=O)[C@@H](N)Cc1ccccc1)C(=O)Nc1ccc2ccccc2c1 [PAβN (dihydrochloride)] (H-Phe-Arg-βNA) | 9% | 6%
Alisol B 23-acetate | 0% | 2%
Nc1nc(=O)[nH]c2c1ncn2[C@@H]1O[C@H](CO)[C@@H](O)[C@H]1O [Crotonoside] | 0% | 0%
C[C@H]1CCC2N(C1)C[C@H]1C3CC4[C@@H](CC(=O)C5C[C@@H](O)CC[C@@]54C)C3CCC1[C@]2(C)O (stereo partly drawn) [Peiminine] | 0% | 19%
COc1cc2c(cc1OC)[C@@H]1Cc3ccc(OC)c(OC)c3C[N@@+]1([O-])CC2 [(‐)‐Corynoxidine] | 19% | 10%

Molecule | Percentage of motility inhibition 0 h | Percentage of motility inhibition 24 h
CC(=O)O[C@H]1[C@H](O[C@H]2CC[C@]34C[C@]35CC[C@]3(C)[C@@H]([C@@]6(C)CC[C@@H](C(C)(C)O)O6)[C@@H](O)C[C@@]3(C)[C@@H]5C[C@H](O[C@@H]3O[C@H](CO)[C@@H](O)[C@H](O)[C@H]3O)[C@H]4C2(C)C)OC[C@@H](O)[C@@H]1O [Astragaloside II] | 5% | 45%
C[C@]12C[C@@H](O)[C@@H]3C[C@@]1(O[C@@H]1O[C@H](CO)[C@@H](O)[C@H](O)[C@H]1O)[C@@]3(COC(=O)c1ccccc1)C(=O)O2 [Albiflorin] | 0% | 2%
CN1[C@@H](CC(=O)c2ccccc2)CCC[C@H]1C[C@H](O)c1ccccc1.Cl [Lobeline (hydrochloride)] | 26% | 30%
C[C@H]1O[C@H](OC2[C@@H](O)[C@@H](O)C(O)[C@H](O)[C@H]2O)[C@@H](N)C[C@@H]1N=C(N)C(=O)O.Cl.O (stereo partly drawn) [Kasugamycin (hydrochloride hydrate)] | 12% | 0%
COC(=O)C1=CO[C@@H](O[C@@H]2O[C@H](CO)[C@@H](O)[C@H](O)[C@H]2O)[C@@H]2[C@@]3(C)O[C@H]3[C@@H](O)[C@]12O [Sesamoside] | 4% | 25%
Liensinine (perchlorate) | 7% | 0%
(+)‐Sparteine (sulfate pentahydrate) | 0% | 0%
CC(C)=CCC[C@](C)(O[C@@H]1O[C@H](CO[C@@H]2O[C@H](CO)[C@@H](O)[C@H](O)[C@H]2O)[C@@H](O)[C@H](O)[C@H]1O)[C@H]1CC[C@]2(C)[C@@H]1[C@H](O)C[C@@H]1[C@@]3(C)CC[C@H](O[C@@H]4O[C@H](CO)[C@@H](O)[C@H](O)[C@H]4O[C@@H]4O[C@H](CO)[C@@H](O)[C@H](O)[C@H]4O[C@@H]4OC[C@@H](O)[C@H](O)[C@H]4O)C(C)(C)[C@@H]3CC[C@]12C [Notoginsenoside Fa] | 7% | 33%
COc1cc(/C=C/C(=O)NCC(O)c2ccc(O)cc2)ccc1O (stereo not drawn) [N‐Feruloyloctopamine] | 14% | 0%
Engeletin | 11% | 9%
C=C1[C@@H]2CCC3[C@@](CC[C@@H]4[C@H](C(=O)O)C[C@@H](O[C@@H]5O[C@H](CO)[C@@H](OS(=O)(=O)[O-])[C@H](OS(=O)(=O)[O-])[C@H]5OC(=O)CC(C)C)C[C@@]34C)(C2)[C@@H]1O.[K+].[K+] (stereo partly drawn) [Atractyloside (potassium salt)] | 29% | 45%
Cl.OC[C@H]1NC[C@@H](O)[C@@H](O)[C@@H]1O [1‐Deoxymannojirimycin (hydrochloride)] | 32% | 11%
Kansuiphorin C | 5% | 29%
N=C(NCCCCCCNC(=N)NC(=N)Nc1ccc(Cl)cc1)NC(=N)Nc1ccc(Cl)cc1.O=C(O)[C@H](O)[C@@H](O)[C@H](O)[C@H](O)CO.O=C(O)[C@H](O)[C@@H](O)[C@H](O)[C@H](O)CO [Chlorhexidine (digluconate)] | 39% | 46%
CC1(C)CC[C@]2(C(=O)O[C@@H]3O[C@H](CO)[C@@H](O)[C@H](O)[C@H]3O)CC[C@]3(C)C(=CC[C@@H]4[C@@]5(C)CC[C@H](O[C@@H]6O[C@H](C(=O)O)[C@@H](O[C@@H]7O[C@@H](CO)[C@H](O)[C@H]7O)[C@H](O)[C@H]6O)C(C)(C)[C@@H]5CC[C@]43C)[C@@H]2C1 [Araloside A] | 6% | 0%
CC(C)=CCC[C@](C)(O[C@@H]1O[C@H](CO)[C@@H](O)[C@H](O)[C@H]1O)[C@H]1CC[C@]2(C)[C@@H]1[C@H](O)C[C@@H]1[C@@]3(C)CC[C@H](O)C(C)(C)[C@@H]3[C@@H](O[C@@H]3O[C@H](CO)[C@@H](O)[C@H](O)[C@H]3O[C@@H]3OC[C@@H](O)[C@H](O)[C@H]3O)C[C@]12C [Notoginsenoside R1] | 5% | 26%
CC(C)=CC/C=C(\C)[C@H]1CC[C@]2(C)[C@@H]1[C@H](O)C[C@@H]1[C@@]3(C)C[C@@H](O)[C@H](O[C@@H]4O[C@H](CO)[C@@H](O)[C@H](O)[C@H]4O[C@@H]4O[C@H](CO)[C@@H](O)[C@H](O)[C@H]4O)C(C)(C)[C@@H]3CC[C@]12C [Damulin A] | 5% | 0%
Nc1ncnc2c1ncn2[C@@H]1O[C@H](COP(=O)(O)O)[C@@H](O)[C@H]1O [Adenosine monophosphate] | 8% | 6%
COc1ccc(-c2cc(=O)c3c(OC)c(OC)c(OC)c(OC)c3o2)cc1O [3'‐Demethylnobiletin] | 0% | 0%
